Laboratory results: ChEMBL document CHEMBL6182832, “Design and synthesis of coumarin-based amphoteric antimicrobials with biofilm interference and immunoregulation effects” (RSC Med Chem, 2025)
≈ marks a conversion by molar mass, not a printed value. Calls of active or inactive are those of the source. No cut-off for these calls is given here.

Key:
[1] = tested on: Staphylococcus aureus; test: Antibacterial activity against clinically isolated Staphylococcus aureus ATCC29213 assessed as inhibition of bacterial growth measured after 16 to 24 hrs by broth microdilution method; type: functional; conditions: time 16-24 hrs, read-out: MIC100
[2] = tested on: Staphylococcus aureus; test: Antibacterial activity against clinically isolated methicillin-resistant Staphylococcus aureus assessed as inhibition of bacterial growth measured after 16 to 24 hrs by broth microdilution method; type: functional; conditions: time 16-24 hrs, read-out: MIC100
[3] = tested on: Escherichia coli; test: Antibacterial activity against clinically isolated Escherichia coli DE17 assessed as inhibition of bacterial growth measured after 16 to 24 hrs by broth microdilution method; type: functional; conditions: time 16-24 hrs, read-out: MIC100
[4] = tested on: Escherichia coli; test: Antibacterial activity against clinically isolated Escherichia coli ATCC25922 assessed as inhibition of bacterial growth measured after 16 to 24 hrs by broth microdilution method; type: functional; conditions: time 16-24 hrs, read-out: MIC100
[5] = tested on: Listeria monocytogenes; test: Antibacterial activity against clinically isolated Listeria monocytogenes CICC21662 assessed as inhibition of bacterial growth measured after 16 to 24 hrs by broth microdilution method; type: functional; conditions: time 16-24 hrs, read-out: MIC100
[6] = tested on: Enterococcus faecalis; test: Antibacterial activity against clinically isolated Enterococcus faecalis ATCC29212 assessed as inhibition of bacterial growth measured after 16 to 24 hrs by broth microdilution method; type: functional; conditions: time 16-24 hrs, read-out: MIC100
[7] = tested on: RAW264.7; test: Anti-inflammatory activity against mouse RAW264.7 cells assessed as inhibition LPS-stimulated NO production 0.5 to 4 ug/ml measured after 24 hrs by NO assay kit; type: functional, cell-based; conditions: dose 0.5-4 µg/ml
[8] = tested on: Bacillus cereus; test: Antibacterial activity against clinically isolated Bacillus cereus CMCC63303 assessed as inhibition of bacterial growth measured after 16 to 24 hrs by broth microdilution method; type: functional; conditions: time 16-24 hrs, read-out: MIC100
[9] = Hemolytic activity in rabbit erythrocytes assessed as hemolysis at 0.5 to 125 ug/ml; type: toxicity, cell-based, Oryctolagus cuniculus; conditions: erythrocyte, dose 0.5-125 µg/ml
[10] = tested on: Staphylococcus aureus; test: Anti-biofilm activity against clinically isolated Staphylococcus aureus ATCC29213 assessed inhibition of biofilm formation at 0.5 to 128 ug/ml measured after 12 to 16 hrs incubation by crystal violet staining based analysis; type: functional, organism-based; conditions: dose 0.5-128 µg/ml, time 12-16 hrs
[11] = tested on: Escherichia coli; test: Anti-biofilm activity against clinically isolated Escherichia coli DE17 assessed inhibition of biofilm formation at 0.5 to 128 ug/ml measured after 12 to 16 hrs incubation by crystal violet staining based analysis; type: functional, organism-based; conditions: dose 0.5-128 µg/ml, time 12-16 hrs
[12] = tested on: Bacillus subtilis; test: Antibacterial activity against clinically isolated Bacillus subtilis ATCC6633 assessed as inhibition of bacterial growth measured after 16 to 24 hrs by broth microdilution method; type: functional; conditions: time 16-24 hrs, read-out: MIC100
[13] = tested on: Staphylococcus aureus; test: Anti-biofilm activity against clinically isolated Staphylococcus aureus ATCC29213 assessed inhibition of biofilm formation at 2 ug/ml measured after 12 to 16 hrs incubation by crystal violet staining based analysis; type: functional; conditions: time 12-16 hrs
[14] = tested on: Escherichia coli; test: Anti-biofilm activity against clinically isolated Escherichia coli DE17 assessed inhibition of biofilm formation at 8 ug/ml measured after 12 to 16 hrs incubation by crystal violet staining based analysis; type: functional; conditions: time 12-16 hrs
[15] = tested on: Staphylococcus aureus; test: Biofilm eradication activity against Staphylococcus aureus ATCC29213 assessed biofilm scavenging at 4 ug/ml measured after 12 to 16 hrs incubation by crystal violet staining based analysis; type: functional, organism-based; conditions: dose 4.0 µg/ml, time 12-16 hrs
[16] = tested on: Escherichia coli; test: Anti-biofilm activity against clinically isolated Escherichia coli DE17 assessed inhibition of biofilm formation at 16 ug/ml measured after 12 to 16 hrs incubation by crystal violet staining based analysis; type: functional; conditions: time 12-16 hrs
[17] = Hemolytic activity in rabbit erythrocytes assessed as hemolysis at >8 ug/ml; type: toxicity, cell-based, Oryctolagus cuniculus; conditions: erythrocyte, dose > 8 µg/ml
[18] = tested on: Staphylococcus aureus; test: Anti-biofilm activity against clinically isolated Staphylococcus aureus ATCC29213 assessed inhibition of biofilm formation at 4 ug/ml measured after 12 to 16 hrs incubation by crystal violet staining based analysis; type: functional; conditions: time 12-16 hrs
[19] = tested on: Escherichia coli; test: Biofilm eradication activity against Escherichia coli DE17 assessed biofilm scavenging at 16 ug/ml measured after 12 to 16 hrs incubation by crystal violet staining based analysis; type: functional, organism-based; conditions: dose 16.0 µg/ml, time 12-16 hrs

Row | SMILES | MIC [1] | MIC [2] | MIC [3] | MIC [4] | also measured
1 | CCCCN(CCCC)CCCCCCCCCCCCOc1ccc2ccc(=O)oc2c1 | 1 µg/mL (≈ 2.18 µM) | 4 µg/mL (≈ 8.74 µM) | > 256 µg/mL | > 256 µg/mL | 
2 | CCCCN(CCCC)CCCCCCCCOc1cc(=O)oc2ccccc12 | 16 µg/mL (≈ 39.8 µM) | 32 µg/mL (≈ 79.7 µM) | > 256 µg/mL | > 256 µg/mL | 
3 | CCCN(CCC)CCCCCCCCOc1cc(=O)oc2ccccc12 | 16 µg/mL (≈ 42.8 µM) | 32 µg/mL (≈ 85.7 µM) | > 256 µg/mL | > 256 µg/mL | 
4 | CN(C)CCCCCCCCCCCCOc1cc(=O)oc2ccccc12 | 4 µg/mL (≈ 10.7 µM) | 4 µg/mL (≈ 10.7 µM) | > 256 µg/mL | > 256 µg/mL | 
5 | CCCN(CCC)CCCCCCCCCCCCOc1cc(=O)oc2ccccc12 | 4 µg/mL (≈ 9.31 µM) | 2 µg/mL (≈ 4.66 µM) | > 256 µg/mL | > 256 µg/mL | 
6 | O=c1ccc2ccc(O)cc2o1 [UMBELLIFERONE] | > 256 µg/mL | > 256 µg/mL | > 256 µg/mL | > 256 µg/mL | MIC [5]: > 256 µg/mL; MIC [6]: > 256 µg/mL; Activity [7]: inactive; MIC [8]: > 256 µg/mL; Activity [9]: Non-toxic; Activity [10]: inactive; Activity [11]: inactive; MIC [12]: > 256 µg/mL
7 | CCCN(CCC)CCCCCCCCCCCCOc1ccc2ccc(=O)oc2c1 | 8 µg/mL (≈ 18.6 µM) | 4 µg/mL (≈ 9.31 µM) | > 256 µg/mL | > 256 µg/mL | 
8 | CCN(CC)CCCCCCCCOc1cc(=O)oc2ccccc12 | 64 µg/mL (≈ 185 µM) | 4 µg/mL (≈ 11.6 µM) | > 256 µg/mL | > 256 µg/mL | 
9 | CCN(CC)CCCCCCCCOc1ccc2ccc(=O)oc2c1 | 64 µg/mL (≈ 185 µM) | 64 µg/mL (≈ 185 µM) | > 256 µg/mL | > 256 µg/mL | 
10 | CN(C)CCCCOc1ccc2ccc(=O)oc2c1 | > 256 µg/mL | > 256 µg/mL | > 256 µg/mL | > 256 µg/mL | 
11 | CCCCN(CCCC)CCCCCCCCOc1ccc2ccc(=O)oc2c1 | 16 µg/mL (≈ 39.8 µM) | 32 µg/mL (≈ 79.7 µM) | > 256 µg/mL | > 256 µg/mL | 
12 | CCCN(CCC)CCCCOc1cc(=O)oc2ccccc12 | > 256 µg/mL | > 256 µg/mL | > 256 µg/mL | > 256 µg/mL | 
13 | CCCCN(CCCC)CCCCCCCCCCCCOc1cc(=O)oc2ccccc12 | 4 µg/mL (≈ 8.74 µM) | 4 µg/mL (≈ 8.74 µM) | > 256 µg/mL | > 256 µg/mL | MIC [5]: 1 µg/mL (≈ 2.18 µM); MIC [6]: 4 µg/mL (≈ 8.74 µM); MIC [8]: 8 µg/mL (≈ 17.5 µM); MIC [12]: 1 µg/mL (≈ 2.18 µM)
14 | CCCCN(CCCC)CCCCOc1cc(=O)oc2ccccc12 | 256 µg/mL (≈ 741 µM) | > 256 µg/mL | > 256 µg/mL | > 256 µg/mL | 
15 | CCCN(CCC)CCCCCCCCOc1ccc2ccc(=O)oc2c1 | 32 µg/mL (≈ 85.7 µM) | 32 µg/mL (≈ 85.7 µM) | > 256 µg/mL | > 256 µg/mL | 
16 | CN(C)CCCCOc1cc(=O)oc2ccccc12 | > 256 µg/mL | > 256 µg/mL | > 256 µg/mL | > 256 µg/mL | 
17 | CCN(CC)CCCCCCCCCCCCOc1cc(=O)oc2ccccc12 | 2 µg/mL (≈ 4.98 µM) | 2 µg/mL (≈ 4.98 µM) | > 256 µg/mL | > 256 µg/mL | MIC [5]: 1 µg/mL (≈ 2.49 µM); inhibition at 2 µg/mL [13]: 100%; MIC [6]: 4 µg/mL (≈ 9.96 µM); inhibition at 8 µg/mL [14]: 100%; Activity [15]: Active; inhibition at 16 µg/mL [16]: 100%; Activity [7]: Active; Activity [17]: Toxic; MIC [8]: 4 µg/mL (≈ 9.96 µM); inhibition at 4 µg/mL [18]: 100%; Activity [19]: Active; Activity [10]: Dose-dependent-effect; Activity [11]: Dose-dependent-effect; MIC [12]: 1 µg/mL (≈ 2.49 µM)
18 | CCN(CC)CCCCOc1ccc2ccc(=O)oc2c1 | > 256 µg/mL | > 256 µg/mL | > 256 µg/mL | > 256 µg/mL | 
19 | CN(C)CCCCCCCCOc1ccc2ccc(=O)oc2c1 | > 128 µg/mL | 64 µg/mL (≈ 202 µM) | > 256 µg/mL | > 256 µg/mL | 
20 | O=c1cc(O)c2ccccc2o1 [4-HYDROXYCOUMARINS] | 256 µg/mL (≈ 1580 µM) | > 256 µg/mL | > 256 µg/mL | > 256 µg/mL | MIC [5]: > 256 µg/mL; MIC [6]: > 256 µg/mL; MIC [8]: > 256 µg/mL; MIC [12]: > 256 µg/mL
21 | CN(C)CCCCCCCCOc1cc(=O)oc2ccccc12 | 32 µg/mL (≈ 101 µM) | 64 µg/mL (≈ 202 µM) | > 256 µg/mL | > 256 µg/mL | 
22 | CCN(CC)CCCCOc1cc(=O)oc2ccccc12 | > 256 µg/mL | > 256 µg/mL | > 256 µg/mL | > 256 µg/mL | 
23 | CN(C)CCCCCCCCCCCCOc1ccc2ccc(=O)oc2c1 | 16 µg/mL (≈ 42.8 µM) | 4 µg/mL (≈ 10.7 µM) | > 256 µg/mL | > 256 µg/mL | 
24 | CCCCN(CCCC)CCCCOc1ccc2ccc(=O)oc2c1 | > 256 µg/mL | > 256 µg/mL | > 256 µg/mL | > 256 µg/mL | 
25 | CCN1CCN(c2cc3c(cc2F)c(=O)c(C(=O)O)cn3C2CC2)CC1 [ENROFLOXACIN] | 0.062 µg/mL (≈ 0.173 µM) | 32 µg/mL (≈ 89 µM) | 0.031 µg/mL (≈ 0.0863 µM) | 0.031 µg/mL (≈ 0.0863 µM) | 
26 | CCCN(CCC)CCCCOc1ccc2ccc(=O)oc2c1 | > 256 µg/mL | > 256 µg/mL | > 256 µg/mL | > 256 µg/mL | 
27 | CN[C@H](CC(C)C)C(=O)N[C@H]1C(=O)N[C@@H](CC(N)=O)C(=O)N[C@H]2C(=O)N[C@H]3C(=O)N[C@H](C(=O)N[C@H](C(=O)O)c4cc(O)cc(O)c4-c4cc3ccc4O)[C@H](O)c3ccc(c(Cl)c3)Oc3cc2cc(c3O[C@@H]2O[C@H](CO)[C@@H](O)[C@H](O)[C@H]2O[C@H]2C[C@](C)(N)[C@H](O)[C@H](C)O2)Oc2ccc(cc2Cl)[C@H]1O [VANCOMYCIN] |  |  | > 256 µg/mL | > 256 µg/mL | MIC [5]: 0.5 µg/mL (≈ 0.345 µM); MIC [6]: 2 µg/mL (≈ 1.38 µM); MIC [12]: 0.5 µg/mL (≈ 0.345 µM)
